Assay [1] relates to THP-1. Kind of assay: Anti-inflammatory activity in human THP1 cells assessed as inhibition of PMA-induced IL-1beta production after 48 hrs by ELISA. The conditions noted are these: THP-1, 48 h. The assay is classed as functional, cell-based. In general terms: An ELISA detects its analyte on a solid surface through an enzyme-linked reagent.
Assay [2] deals with THP-1. Kind of assay: Anti-inflammatory activity in human THP1 cells assessed as inhibition of PMA-induced MCP-1 production after 48 hrs by ELISA. The assay is classed as functional, cell-based. The conditions noted are these: THP-1, 48 h.
A short description of assay [3]: Cytotoxicity against human THP1 cells assessed as cell viability at 20 uM after 48 hrs by trypan blue dye exclusion assay. The assay is classed as functional. The conditions noted are these: THP-1, 48 h, read-out: Activity.

SMILES strings stand for the structures.

Results on 15 molecules are retold here after ChEMBL document CHEMBL3751757, “Three-component, one-pot synthesis of benzo[6,7]cyclohepta[1,2-b]pyridine derivatives under catalyst free conditions and evaluation of their anti-inflammatory activity” (Bioorg Med Chem Lett, 2016).

As a reminder, the IC50 is the concentration that inhibits the measured activity by half.

For `CCOC(=O)c1cc2c(nc1C)-c1cc(C)c(C)cc1CCC2`, the results for the IC50 in the assay on THP-1 [1] and in the assay with THP-1 [2] were 6.5 µM and 8.5 µM, respectively. For the same molecule, the viability at 20 µM in assay [3] amounted to 95.9%.

Turning to `CC1(C)CC(=O)c2cc3c(nc2C1)-c1ccccc1CCC3`, the IC50 with THP-1 [1] is greater than 20 µM; with THP-1 [2], 5.6 µM. The viability at 20 µM in assay [3] came to 98.2%.

As to `CC(=O)c1cc2c(nc1C)-c1cc(C)c(C)cc1CCC2`, the IC50 with THP-1 [1] is greater than 20 µM; in the assay with THP-1 [2] it was 14.8 µM. Moreover, the viability at 20 µM in assay [3] was 97.6%.

In the case of `COC(=O)c1cc2c(nc1C)-c1cc(C)c(C)cc1CCC2`, the results for the 50% inhibitory concentration (IC50) with THP-1 [1] and in the assay on THP-1 [2] were 8.6 µM and 16 µM, respectively. For the same molecule, in assay [3], the viability at 20 µM was found to be 98.3%.

As for `O=C(c1ccccc1)c1cc2c(nc1-c1ccccc1)-c1ccccc1CCC2`, the IC50 in the assay with THP-1 [1] was 17.5 µM; with THP-1 [2] it was greater than 20 µM. In addition, the viability at 20 µM in assay [3] is 99.4%.

In the case of `O=C1CCCc2nc3c(cc21)CCCc1ccccc1-3`, the IC50 in the assay on THP-1 [1] and in the assay on THP-1 [2] was greater than 20 µM each time. Also, the viability at 20 µM in assay [3] worked out at 96.8%.

Consider `CCOC(=O)c1cc2c(nc1-c1ccccc1)-c1ccccc1CCC2`, for which the IC50 in the assay on THP-1 [1] and in the assay on THP-1 [2] was greater than 20 µM each time. Also, the viability at 20 µM in assay [3] came to 103%.

For the molecule `Cc1cc2c(cc1C)-c1nc3c(cc1CCC2)C(=O)CCC3`, the IC50 in the assay with THP-1 [1] and in the assay on THP-1 [2] was greater than 20 µM each time. The viability at 20 µM in assay [3] is 97.1%.

Consider `CCOC(=O)c1cc2c(nc1-c1ccccc1)-c1cc(C)c(C)cc1CCC2`, for which the IC50 in the assay on THP-1 [1] was determined as 18.2 µM; in the assay with THP-1 [2], 8.5 µM. In addition, the viability at 20 µM in assay [3] was 97.6%.

For `Cc1cc2c(cc1C)-c1nc3c(cc1CCC2)C(=O)CC(C)(C)C3`, the IC50 in the assay on THP-1 [1] and with THP-1 [2] was greater than 20 µM in each case. For the same molecule, the viability at 20 µM in assay [3] is 105%.

Regarding `COC(=O)c1cc2c(nc1C)-c1ccccc1CCC2`, the IC50 in the assay with THP-1 [1] was 8.2 µM; with THP-1 [2], greater than 20 µM. Moreover, the viability at 20 µM in assay [3] is 97.2%.

As for `Cc1cc2c(cc1C)-c1nc(-c3ccccc3)c(C(=O)c3ccccc3)cc1CCC2`, the IC50 in the assay with THP-1 [1] and in the assay with THP-1 [2] was greater than 20 µM in each case. Besides, in assay [3], the viability at 20 µM is 101%.

As to `CCOC(=O)c1cc2c(nc1C)-c1ccccc1CCC2`, the IC50 with THP-1 [1] is 6.9 µM; with THP-1 [2] it was greater than 20 µM. For the same molecule, the viability at 20 µM in assay [3] stood at 99.2%.

As to `CC(=O)c1cc2c(nc1C)-c1ccccc1CCC2`, the IC50 in the assay on THP-1 [1] and with THP-1 [2] was greater than 20 µM each time. Moreover, the viability at 20 µM in assay [3] was 92.3%.

For `CN1C(C(=O)Nc2ccccn2)=C(O)c2ccccc2S1(=O)=O` [PIROXICAM], the IC50 in the assay with THP-1 [1] was 18.1 µM. The viability at 20 µM in assay [3] turned out to be 98.1%.
